A short description of this data set: Solubility test: apparent solubility in test solutions, HPLC-UV. The class given is physicochemical. To be noted: for solubility: aqueous buffer, thermodynamic from solid. As for the experimental part: Several milligram of each compound to be tested was precisely weighed, and 0.1 to 1.3 mL of the following test solutions were each added to the compound. The resulting mixture was stirred for several tens of seconds to several minutes for dispersing or dissolving the compound. Then, the supernatant was collected by centrifugation or filtration through a membrane. The concentration of the compound in the supernatant was quantitatively measured by an HPLC-UV method as an apparent solubility of the compound to each test solution.
pH 5: Diluted Mcllvaine buffer solution (KANTO Chemical Co. Inc.)
pH 7: GIBCO™ Dulbecco's phosphate-buffered saline (Invitrogen Corporation)

The mark [1] stands for this setting: pH 7: Dulbecco's phosphate-buffered saline, read-out: Solubility at pH 7.
Where [2] appears, read: diluted McIlvaine buffer solution, pH 5: Diluted Mcllvaine buffer solution, read-out: Solubility at pH 5.

Read-outs that look alike come from different tables or passages of the source.

This is an account of results in patent publication US7737141B2, “Prodrug of cinnamide compound” (Eisai R&D Management Co., Ltd., priority 2006, dated 2010).

The term Solubility denotes how much of the substance goes into solution per volume. The term solubility denotes the dissolved amount per volume that the medium holds.

Turning to “1-{4-{(E)-1-{[(S)-1-(4-fluorophenyl)ethyl]-2-oxopiperidin-3-ylidene}methyl}-2-methoxyphenyl}-4-methyl-1H-imidazol-3-iomethyl monohydrogenphosphate [Example 2]”, the “Solubility at pH 5” value (pH 5: Diluted Mcllvaine buffer solution) is recorded as greater than 10 mg/mL. Also, the “Solubility at pH 7” value (pH 7: Dulbecco's phosphate-buffered saline) is greater than 10 mg/mL.

As to `COc1cc(/C=C2\CCCN([C@@H](C)c3ccc(F)cc3)C2=O)ccc1-n1cc(C)[n+](COC(C)=O)c1.[I-]` [Example 3, 1-acetoxymethyl-3-[4-{1-[(S)-1-(4-fluorophenyl)ethyl]-2-oxopiperidin-(3E)-ylidenemethyl]-2-methoxyphenyl}-5-methyl-3H-imidazol-1-ium iodide], the solubility runs as follows: under setting [1], 1120 µg/mL; under setting [2], 1240 µg/mL.

For `COc1cc(/C=C2\CCCN([C@H](c3cc(F)c(F)c(F)c3)[C@@H](C)O)C2=O)ccc1-n1cc(C)[n+](COP(=O)(O)O)c1.O=C([O-])C(F)(F)F` [Example 4, 3-{4-{1-[(1R,2R)-2-hydroxy-1-(3,4,5-trifluorophenyl)propyl]-2-oxopiperidin-(3E)-ylidenemethyl}-2-methoxyphenyl}-5-methyl-1-(phosphonooxymethyl)-3H-imidazol-1-ium trifluoroacetate], the solubility is, setting by setting: under setting [1], greater than 10000 µg/mL; under setting [2], greater than 10000 µg/mL.

Regarding `Cc1cn(-c2ccc(/C=C3\O[C@@H](C)CN([C@H](c4cc(F)c(F)c(F)c4)[C@@H](C)O)C3=O)cc2F)c[n+]1COP(=O)(O)O.O=C([O-])C(F)(F)F` [Example 5, 3-[2-fluoro-4-[(S)-4-[(1R,2R)-2-hydroxy-1-(3,4,5-trifluorophenyl)propyl]-6-methyl-3-oxomorpholin-(2Z)-ylidenemethyl]phenyl]-5-methyl-1-phosphonooxymethyl-3H-imidazol-1-ium trifluoroacetate], the solubility amounted to 460 µg/mL under setting [1] and 320 µg/mL under setting [2].

`COc1cc(/C=C2\CC[C@H]3CC[C@@H](c4cc(F)c(F)c(F)c4)N3C2=O)ccc1-n1cc(C)[n+](COP(=O)(O)O)c1.O=C([O-])C(F)(F)F` [Example 6, 3-{2-methoxy-4-[(3S,8aS)-5-oxo-3-(3,4,5-trifluorophenyl)hexahydroindolizin-(6E)-ylidenemethyl]phenyl}-5-methyl-1-phosphonooxymethyl-3H-imidazol-1-ium trifluoroacetate]: the solubility under setting [1] stood at 8890 µg/mL and the solubility under setting [2] was 9140 µg/mL.

As for `COc1cc(/C=C2\CC[C@H]3CC[C@@H](c4ccc(Cl)cc4)N3C2=O)ccc1-n1cc(C)[n+](COP(=O)(O)O)c1.O=C([O-])C(F)(F)F` [Example 8, 3-{4-[(3S,8aS)-3-(4-chlorophenyl)-5-oxohexahydroindolizin-(6E)-ylidenemethyl]-2-methoxyphenyl}-5-methyl-1-(phosphonooxymethyl)-3H-imidazol-1-ium trifluoroacetate], the solubility runs as follows: under setting [1], 1690 µg/mL; under setting [2], 960 µg/mL.

As to `Cc1cn(-c2ccc(/C=C3\O[C@@H](C)CN([C@H](c4ccc(F)c(F)c4)[C@@H](C)O)C3=O)cc2F)c[n+]1COP(=O)(O)O.O=C([O-])C(F)(F)F` [Example 9, 3-{4-{(S)-4-[(1R,2R)-1-(3,4-difluorophenyl)-2-hydroxypropyl]-6-methyl-3-oxomorpholin-(2Z)-ylidenemethyl}-2-fluorophenyl}-5-methyl-1-phosphonooxymethyl-3H-imidazol-1-ium trifluoroacetate], the solubility by setting is: under setting [1], 4720 µg/mL; under setting [2], 3450 µg/mL.

For the molecule `COc1cc(/C=C2\CC[C@@H]3CCC[C@@H](c4cc(F)c(F)c(F)c4)N3C2=O)ccc1-n1cc(C)[n+](COP(=O)(O)O)c1.O=C([O-])C(F)(F)F` [Example 10, 3-{2-methoxy-4-[(6S,9aS)-4-oxo-6-(3,4,5-trifluorophenyl)hexahydroquinolizin-(3E)-ylidenemethyl]phenyl}-5-methyl-1-(phosphonooxymethyl)-3H-imidazol-1-ium trifluoroacetate], the solubility runs as follows: under setting [1], 9760 µg/mL; under setting [2], 9590 µg/mL.

Consider `COc1cc(/C=C2\CC[C@H]3COC[C@@H](c4cc(F)c(F)c(F)c4)N3C2=O)ccc1-n1cc(C)[n+](COP(=O)(O)O)c1.O=C([O-])C(F)(F)F` [Example 11, 3-{2-methoxy-4-[(4R,9aS)-6-oxo-4-(3,4,5-trifluorophenyl)hexahydropyrido[2,1-c][1,4]oxazin-(7E)-ylidenemethyl]phenyl}-5-methyl-1-phosphonooxymethyl-3H-imidazol-1-ium trifluoroacetate], for which the solubility runs as follows: under setting [1], 8110 µg/mL; under setting [2], 7680 µg/mL.

Turning to `COc1cc(/C=C2\O[C@@H](C)CN([C@H](c3cc(F)c(F)c(F)c3)[C@@H](C)O)C2=O)ccc1-n1cc(C)[n+](COP(=O)(O)O)c1.O=C([O-])C(F)(F)F` [Example 12, 3-{4-{(S)-4-[(1R,2R)-2-hydroxy-1-(3,4,5-trifluorophenyl)propyl]-6-methyl-3-oxomorpholin-(2Z)-ylidenemethyl}-2-methoxyphenyl}-5-methyl-1-(phosphonooxymethyl)-3H-imidazol-1-ium trifluoroacetate], the solubility by setting is: under setting [1], 1830 µg/mL; under setting [2], 3440 µg/mL.

As to `COc1cc(/C=C2\CC[C@H]3CCC[C@@H](c4ccc(Cl)cc4)N3C2=O)ccc1-n1cc(C)[n+](COP(=O)(O)O)c1.O=C([O-])C(F)(F)F` [Example 13, 3-{4-[(6S,9aR)-6-(4-chlorophenyl)-4-oxohexahydroquinolizin-(3E)-ylidenemethyl]-2-methoxyphenyl}-5-methyl-1-phosphonooxymethyl-3H-imidazol-1-ium trifluoroacetate], the solubility by setting is: under setting [1], 9150 µg/mL; under setting [2], 9330 µg/mL.

With `COc1cc(/C=C2\O[C@@H](C)[C@H]3COC[C@@H](c4cc(F)c(F)c(F)c4)N3C2=O)ccc1-n1cc(C)[n+](COP(=O)(O)O)c1.O=C([O-])C(F)(F)F` [Example 14, 3-{2-methoxy-4-[(1S,6R,9aR)-1-methyl-4-oxo-6-(3,4,5-trifluorophenyl)tetrahydro-[1,4]oxazino[3,4-c][1,4]oxazine-(3Z)-ylidenemethyl]phenyl}-5-methyl-1-phosphonooxymethyl-3H-imidazole-1-ium trifluoroacetate], the solubility runs as follows: under setting [1], greater than 10000 µg/mL; under setting [2], greater than 10000 µg/mL.

Consider `COc1cc(/C=C2\O[C@@H](C)[C@H]3COC[C@@H](c4ccc(Cl)cc4)N3C2=O)ccc1-n1cc(C)[n+](COP(=O)(O)O)c1.O=C([O-])C(F)(F)F` [Example 15, 3-{4-[(1S,6R,9aR)-6-(4-chlorophenyl)-1-methyl-4-oxotetrahydro[1,4]oxazino[3,4-c][1,4]oxazine-(3Z)-ylidenemethyl]-2-methoxyphenyl}-5-methyl-1-phosphonooxymethyl-3H-imidazole-1-ium trifluoroacetate], for which the solubility is greater than 10000 µg/mL under setting [1] and greater than 10000 µg/mL under setting [2].

In the case of `COc1cc(/C=C2\O[C@@H](C)[C@H]3CC[C@@H](c4cc(F)c(F)c(F)c4)N3C2=O)ccc1-n1cc(C)[n+](COP(=O)(O)O)c1.O=C([O-])C(F)(F)F` [Example 16, 3-{2-methoxy-4-[(1S,6S,8aR)-1-methyl-4-oxo-6-(3,4,5-trifluorophenyl)tetrahydropyrrolo[2,1-c][1,4]oxazine-(3Z)-ylidenemethyl]phenyl}-5-methyl-1-phosphonooxymethyl-3H-imidazole-1-ium trifluoroacetate], the solubility is, setting by setting: under setting [1], 1120 µg/mL; under setting [2], 1150 µg/mL.

`COc1cc(/C=C2\O[C@@H](C)[C@H]3COC[C@@H](c4ccc(F)c(F)c4)N3C2=O)ccc1-n1cc(C)[n+](COP(=O)(O)O)c1.O=C([O-])C(F)(F)F` [Example 17, 3-{4-[(1S,6R,9aR)-6-(3,4-difluorophenyl)-1-methyl-4-oxotetrahydro[1,4]oxazino[3,4-c][1,4]oxazine-(3Z)-ylidenemethyl]-2-methoxyphenyl}-5-methyl-1-phosphonooxymethyl-3H-imidazole-1-ium trifluoroacetate]: the solubility reads like this: under setting [1], 7550 µg/mL; under setting [2], greater than 10000 µg/mL.

Take `COc1cc(/C=C2\OC(C)(C)[C@H]3COC[C@@H](c4cc(F)c(F)c(F)c4)N3C2=O)ccc1-n1cc(C)[n+](COP(=O)(O)O)c1.O=C([O-])C(F)(F)F` [Example 18, 3-{4-[(6R,9aR)-1,1-dimethyl-4-oxo-6-(3,4,5-trifluorophenyl)tetrahydro[1,4]oxazino[3,4-c][1,4]oxazine-(3Z)-ylidenemethyl]-2-methoxyphenyl}-5-methyl-1-phosphonooxymethyl-3H-imidazole-1-ium trifluoroacetate]: the solubility under setting [1] is greater than 10000 µg/mL and the solubility under setting [2] is greater than 10000 µg/mL.
